The results in this text go back to patent US20030191051A1, “Combination therapy for the treatment of bacterial infections” (priority 2002, published 2003).

A short description of this series: Combination therapy of antibiotic and COX-2 selective inhibitor administered to a mammal to treat or prevent a bacterial infection. The settings on record: pharmaceutically effective amount, administered together with a pharmaceutically effective amount of linezolid to a mammal.

For `CS(=O)(=O)c1ccc(C2=C(c3ccccc3)C(=O)OC2)cc1` [rofecoxib], the “side effects resulting from the administration of the antibiotic” value is “reduced side effects”.
